# System: TNF-α
# Test: Immunohistochemistry of TNF-α in respiratory tract tissue of sodium hypochlorite aerosol-treated rabbits
# Assay type: in vivo, New Zealand albino rabbits
# Excerpt: It is known that the factors TGF-α, TGF-β 1, TGF-β 2, TGF-β 3, SPARC, MMP-3; MMP-7, MMP-9, MMP-11, MMP-13 and MMP-14, TGF-β, NF-kB, EGF, MMP-9, VEGF and TNF-α which are produced by lung cells (pneumocytes, fibroblasts and vascular endothelial cells) and inflammatory cells (macrophages, lymphocytes and polymorphonuclear leukocytes) are involved in the pathophysiology and development of said respiratory tract diseases. […] Herein, 27 New Zealand albino rabbits (New Zealand White Rabbit) with an initial average weight about 3 kg were used in this example. All subjects were administered an aerosol of a solution consisting of a mixture of water and sodium hypochlorite (35 g sodium hypochlorite per liter of water) at a rate of 5 mL of said solution by inhalation three times a day for 7 days (days 1 to 7 of experimentation). Subsequently, from days 3 to 7, a group of 3 rabbits (Group 1) was administered an oral dose of 10 mg/kg body weight per day, another group of 3 rabbits (Group 2) was administered an oral dose of 40 mg/kg body weight per day, a third group (Group 3) was administered an oral dose of 80 mg/kg body weight per day and a fourth group (Group 4) was administered an oral dose of 100 mg/kg body weight per day. […] This mixture was administered as an aerosol by inhalation, also from days 3 to 7, to a group of 3 rabbits (group 5) at a dose of 0.05 mg/kg body weight per day, to another group of three rabbits (Group 6) at a dose of 0.1 mg/kg body weight per day, to another group of three rabbits (Group 7) at a dose of 0.2 mg/kg body weight per day and to another group of three rabbits (Group 8) at a dose of 0.4 mg/kg body weight per day. A placebo consisting only of olive oil was administered from days 3 to 7 to a control group of 3 rabbits (placebo group). In parallel, 3 rabbits were kept under identical conditions but were not administered any treatment nor the aforementioned sodium hypochlorite solution (control group). […] On day 7 of the experiment all animals were euthanized and necropsied. […] Samples were taken at the peripheral level of the lung parenchyma, just below the pleural surface. Tissue samples were also taken from the nasal cavity, pharynx, larynx and bronchi. Immunohistochemistry studies were performed for all samples to evaluate the levels of the markers TGF-α, TGF-β 1, TGF-β 2, TGF-β 3 SPARC, MMP-3; MMP-7, MMP-9, MMP-11, MMP-14, TGF-β, TNF-α and VEGF. In said immunohistochemistry studies, a sample of each sample was dehydrated by treatment with increasing concentrations of ethanol and finally xylene. Subsequently said dried samples were embedded in paraffin, thus creating a block. Said paraffin blocks were cut on a microtome to a thickness of 5 μm, and the resulting sections (slices) were placed on slides suitable for conducting immunohistochemistry techniques. Subsequently, the sections were deparaffinised by immersion in xylene and then rehydrated through immersion in a series of solutions containing decreasing concentrations of ethanol and, finally, water. […] The samples were then allowed to cool to room temperature over 10 minutes. Endogenous peroxidase activity was blocked by treatment with 3% hydrogen peroxide over 30 min at room temperature. […] In order to verify the expression of NK1 receptors, the cell samples were incubated in the presence of anti-NK1 antibodies ([…], Sigma-Aldrich) diluted 1:1000 at 4° C. overnight. After this time they were washed in 0.05M Tris buffer at room temperature. Subsequently, Envision System-HRP (Dako) reagents were added for 30 min at room temperature. Once this time had expired, the samples were again washed with 0.05 M Tris buffer, and immunoreactivity was visualized by light microscopy with a chromogenic solution with 3,3'-diaminobenzidine (DAB+; Dako, USA). In order to differentiate the cell nuclei, these were lightly stained with haematoxylin. Samples that were not incubated with the primary antibody, but wherein this was replaced by a non-immune serum were used as negative controls. […]
compound,measurement,setting,value
"C[C@@H](OC1OCCN(Cc2nc(=O)[nH][nH]2)C1c1ccc(F)cc1)c1cc(C(F)(F)F)cc(C(F)(F)F)c1 (stereo in doubt) [Aprepitant, 5-([(2R,3S)-2-((R)-1-[3,5-bis(trifluoromethyl)phenyl]ethoxy)-3-(4-fluorophenyl)morpholino]methyl)-1H-1,2,4-triazol-3(2H)-one]",Percent increase in TNF-α with respect to the control group,"bronchial tissue, Group 1, oral 10 mg/kg per day",789.45%
same,Percent increase in TNF-α with respect to the control group,"bronchial tissue, Group 2, oral 40 mg/kg per day",580.67%
same,Percent increase in TNF-α with respect to the control group,"bronchial tissue, Group 3, oral 80 mg/kg per day",467.45%
same,Percent increase in TNF-α with respect to the control group,"bronchial tissue, Group 4, oral 100 mg/kg per day",356.34%
same,% Med G5/C: percent increase in marker TNF-α with respect to the control group,"bronchial tissue, Group 5",673.34%
same,% Med G6/C: percent increase in marker TNF-α with respect to the control group,"bronchial tissue, Group 6",451.23%
same,% Med G7/C: percent increase in marker TNF-α with respect to the control group,"bronchial tissue, Group 7",325.21%
same,% Med G8/C: percent increase in marker TNF-α with respect to the control group,"bronchial tissue, Group 8",201.23%
same,Percent increase in TNF-α with respect to the control group,"laryngeal tissue, Group 1, oral 10 mg/kg per day","1,078.45%"
same,Percent increase in TNF-α with respect to the control group,"laryngeal tissue, Group 2, oral 40 mg/kg per day",809.99%
same,Percent increase in TNF-α with respect to the control group,"laryngeal tissue, Group 3, oral 80 mg/kg per day",708.73%
same,Percent increase in TNF-α with respect to the control group,"laryngeal tissue, Group 4, oral 100 mg/kg per day",509.87%
same,Percent increase in TNF-α with respect to the control group,"laryngeal tissue, Group 5, inhalation 0.05 mg/kg per day",879.34%
same,Percent increase in TNF-α with respect to the control group,"laryngeal tissue, Group 6, inhalation 0.1 mg/kg per day",456.34%
same,Percent increase in TNF-α with respect to the control group,"laryngeal tissue, Group 7, inhalation 0.2 mg/kg per day",323.12%
same,Percent increase in TNF-α with respect to the control group,"laryngeal tissue, Group 8, inhalation 0.4 mg/kg per day",150.34%
same,Percent increase in TNF-α with respect to the control group,"lung tissue, Group 1, oral 10 mg/kg per day",859.73%
same,Percent increase in TNF-α with respect to the control group,"lung tissue, Group 2, oral 40 mg/kg per day",685.01%
same,Percent increase in TNF-α with respect to the control group,"lung tissue, Group 3, oral 80 mg/kg per day",607.15%
same,Percent increase in TNF-α with respect to the control group,"lung tissue, Group 4, oral 100 mg/kg per day",463.11%
same,Percent increase in TNF-α with respect to the control group,"lung tissue, Group 5, inhalation 0.05 mg/kg per day",980.46%
same,Percent increase in TNF-α with respect to the control group,"lung tissue, Group 6, inhalation 0.1 mg/kg per day",470.69%
same,Percent increase in TNF-α with respect to the control group,"lung tissue, Group 7, inhalation 0.2 mg/kg per day",218.38%
same,Percent increase in TNF-α with respect to the control group,"lung tissue, Group 8, inhalation 0.4 mg/kg per day",151.28%
same,Percent increase in TNF-α with respect to the control group,"nasal cavity tissue, Group 1, oral 10 mg/kg per day","1,411.41%"
same,Percent increase in TNF-α with respect to the control group,"nasal cavity tissue, Group 2, oral 40 mg/kg per day",842.93%
same,Percent increase in TNF-α with respect to the control group,"nasal cavity tissue, Group 3, oral 80 mg/kg per day",658.65%
same,Percent increase in TNF-α with respect to the control group,"nasal cavity tissue, Group 4, oral 100 mg/kg per day",418.29%
same,Percent increase in TNF-α with respect to the control group,"nasal cavity tissue, Group 5, inhalation 0.05 mg/kg per day","1,495.60%"
same,Percent increase in TNF-α with respect to the control group,"nasal cavity tissue, Group 6, inhalation 0.1 mg/kg per day",736.83%
same,Percent increase in TNF-α with respect to the control group,"nasal cavity tissue, Group 7, inhalation 0.2 mg/kg per day",151.81%
same,Percent increase in TNF-α with respect to the control group,"nasal cavity tissue, Group 8, inhalation 0.4 mg/kg per day",122.23%
same,Percent increase in TNF-α with respect to the control group,"pharyngeal tissue, Group 1, oral 10 mg/kg per day","1,357.32%"
same,Percent increase in TNF-α with respect to the control group,"pharyngeal tissue, Group 2, oral 40 mg/kg per day",987.63%
same,Percent increase in TNF-α with respect to the control group,"pharyngeal tissue, Group 3, oral 80 mg/kg per day",789.45%
same,Percent increase in TNF-α with respect to the control group,"pharyngeal tissue, Group 4, oral 100 mg/kg per day",418.29%
same,Percent increase in TNF-α with respect to the control group,"pharyngeal tissue, Group 5, inhalation 0.05 mg/kg per day","1,532.34%"
same,Percent increase in TNF-α with respect to the control group,"pharyngeal tissue, Group 6, inhalation 0.1 mg/kg per day",989.36%
same,Percent increase in TNF-α with respect to the control group,"pharyngeal tissue, Group 7, inhalation 0.2 mg/kg per day",298.67%
same,Percent increase in TNF-α with respect to the control group,"pharyngeal tissue, Group 8, inhalation 0.4 mg/kg per day",167.34%
